Reference: EPA's ToxValDB 9.5 (doi:10.2903/j.efsa.2014.3913)

Legend:
Bibionidae = conditions: chronic/long-term; duration: 28 days
Apis mellifera = conditions: acute, mortality
Rattus norvegicus = conditions: acute; mortality
Daphnia magna = conditions: chronic/long-term; duration: 21 days
Poephila guttata = conditions: acute; oral; unspecified; mortality
Hypoaspis aculeifer = conditions: chronic/long-term
Folsomia candida = conditions: chronic/long-term
Oryctolagus sp. = conditions: reproduction developmental; organ weight
Colinus virginianus = conditions: for LD50: acute, oral, mortality
Chironomus tentans = conditions: chronic/long-term; duration: 28 days
[1] = acute, duration: 96 hours, mortality
[2] = chronic/long-term, duration: 28 days

With COC(=O)c1nc(-c2ccc(Cl)c(OC)c2F)cc(N)c1Cl [Halauxifen-methyl] the NOEC (Bibionidae) was 1.26 mg/L, the LD50 (Apis mellifera; dermal) was > 98.1 µg/piece and the LD50 (Apis mellifera; oral, unspecified) was > 108 µg/piece. The LC50 (Tagia sp.; acute, duration: 14 days, mortality) was > 500 mg/kg, the NOEC (Tagia sp.; chronic/long-term, duration: 8 weeks) was 5 mg/kg and the LD50 (Rattus norvegicus) was > 5000 mg/kg. For the same molecule, the NOEC (Daphnia magna) was 0.144 mg/L, the NOAEL (Anas platyrhynchos; reproductive, reproduction) was 160 mg/kg-day and the LD50 (Anas platyrhynchos; short-term, oral, feed, mortality) was > 2090 mg/kg-day. For the same molecule, the LD50 (Poephila guttata) was > 2250 mg/kg, the NOEC (Hypoaspis aculeifer) was 12.5 mg/kg and the NOEC (Folsomia candida) was 500 mg/kg. The LC50 (Cyprinodon variegatus; [1]) was > 1.33 mg/L, the NOEC (Cyprinodon variegatus; [2]) was 0.0115 mg/L and the NOAEL (Oryctolagus sp.) was 5.78 mg/kg-day. The LC50 (Neomysis kadiakensis; [1]) was > 1.3 mg/L, the NOEC (Neomysis kadiakensis; [2]) was 0.152 mg/L and the LD50 (Colinus virginianus; diet) was > 1330 mg/kg-day. For the same molecule, the LD50 (Colinus virginianus) was > 2250 mg/kg, the NOAEL (Colinus virginianus; reproduction developmental, reproduction) was 36.9 mg/kg-day and the NOEC (Chironomus tentans) was 89.3 mg/kg.
